In one data set the test system is MCF-7 cells. Put plainly: Inhibition of proliferation of MCF-7 cells (ATP method). The data set is classed as cell-based. The conditions noted are these: Homo sapiens, MCF7; 72 h, Cell Titer-Glo; read-out: IC50, inhibitory effect on proliferation of MCF-7 cells. The method, then: This experiment was intended to test the inhibitory effect of the compound disclosed herein on the proliferation of MCF-7 cells by using the ATP method, and to evaluate the in vitro activity of the compound according to the IC50 value.
MCF-7 cells (TCHu74, National Collection of Authenticated Cell Cultures) were seeded into a 96-well plate with an MEM (hyclone, SH30024.01B) medium containing 10% FBS (Gibco, 10099-141), 1% sodium pyruvate (sigma, S8636) and 1% non-essential amino acid (sigma, M7145) at a density of 4,000 cells/well and cultured at 37° C. with 5% CO2. 20 mM stock solution of the compound was prepared, serially diluted with 100% DMSO to a final concentration of 1000×, and then diluted 20-fold with a medium containing 2% FBS. After the cells were cultured for 24 h, the medium was removed. 90 μL of the medium containing 2% FBS and 10 μL of a drug were added to each well, and 10 μL of DMSO was added to the control group. The mixtures were well mixed by gentle shaking. The blank group contained only 100 μL of the medium containing 2% FBS. The cells were cultured in an incubator at 37° C. with 5% CO2 for 72 h, and then 50 μL of mixed Cell Titer-Glo (Promega, G7571) was added to each well. The mixtures were well mixed by shaking and let stand at room temperature for 10 min, and the chemiluminescence signal value was determined. […]
In general terms: Cellular ATP, detected with luciferase, serves as a proxy for viable cell number.

Another data set deals with ERα (Homo sapiens (Human), UniProt P03372). Briefly: Degradation of ERα in MCF-7 cells (ELISA). It is filed as cell-based. The conditions noted are these: 16 to 18 h, read-out: EC50, degradation of ERα. The protocol: ERα-positive breast cancer cell line MCF-7 cells were cultured in a DMEM/F12 medium (HyClone, SH30023.01) containing 10% fetal bovine serum (Corning, 35-010-CV). […] The 48-well plate was placed in the incubator for 16 to 18 h. A 96-well plate was coated with the capture antibody from the human ERα/NR3A1 total protein assay kit (R&D, DYC5715-5). […] The plate was placed in an incubator at 26° C. overnight. On day 3, the antibody-coated 96-well plate was washed once with PBS, and 200 μL of PBS containing 1% BSA was added to each well. The plate was incubated in an incubator at 37° C. for 1.5 h to be blocked. The cell culture medium supernatant was discarded. […] A biotinylated assay antibody was diluted to 0.4 μg/mL with PBS containing 1% BSA, and then 100 μL of the assay antibody was added to each well. The plate was incubated in an incubator at 37° C. for 1 h. The plate was then washed five more times, and 100 μL of avidin-HRP diluted 200-fold with PBS containing 1% BSA was added to each well. The plate was incubated at 37° C. for 30 min.
Chain of ERα (P03372 whole entry): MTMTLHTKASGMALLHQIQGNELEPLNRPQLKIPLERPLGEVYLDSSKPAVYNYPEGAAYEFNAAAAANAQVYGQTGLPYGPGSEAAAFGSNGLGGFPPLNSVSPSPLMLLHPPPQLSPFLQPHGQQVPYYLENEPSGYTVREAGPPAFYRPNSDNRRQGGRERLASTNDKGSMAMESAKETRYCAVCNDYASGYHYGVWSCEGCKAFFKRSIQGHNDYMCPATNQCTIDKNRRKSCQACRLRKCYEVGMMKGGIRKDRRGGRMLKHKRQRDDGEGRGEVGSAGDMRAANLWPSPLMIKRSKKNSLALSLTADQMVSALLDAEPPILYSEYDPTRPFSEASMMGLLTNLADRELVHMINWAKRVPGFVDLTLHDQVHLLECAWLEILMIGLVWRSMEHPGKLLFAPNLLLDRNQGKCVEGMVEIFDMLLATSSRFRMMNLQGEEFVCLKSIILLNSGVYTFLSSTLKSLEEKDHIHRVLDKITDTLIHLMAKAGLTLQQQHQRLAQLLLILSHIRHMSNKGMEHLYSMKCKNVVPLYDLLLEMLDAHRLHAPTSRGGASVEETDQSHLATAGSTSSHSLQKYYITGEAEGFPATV
In general terms: In an ELISA, binding on a coated surface is turned into a signal by an enzyme label.

The nature of data set [1]: Long-term/accelerated stability. The following applies: for Crystal form: up to 3 months. It is filed as physicochemical.
Data set [2] can be described thus: Hygroscopicity study (DVS). The following applies: 25° C. It is filed as physicochemical. The method, then:
DVS refers to dynamic vapor sorption: The measurement was conducted on SMS DVS Advantage; at 25° C., the humidity was changed as follows: 50%-95%-0%-95%-50%, in steps of 10% (5% for the last step) (specific humidity ranges are shown in corresponding patterns, and those listed here were used in most cases); the criterion was dm/dt≤0.002%.
The measurement was conducted with a Surface Measurement Systems intrinsic at 25° C., starting from 50% humidity in humidity range of 0%-95%, in steps of 10%; the criterion was dM/dT≤0.002% and TMAX of 360 min in two cycles.

As to `[2H]C1([2H])Oc2cc3c(cc2O1)[C@@H](c1ccc(NC2CN(CCCF)C2)cn1)N(CC(F)(F)CO)[C@H](C)C3` [Compound 1, 2,2-Difluoro-3-((5S,7R)-5-(5-((1-(3-fluoropropyl)azetidin-3-yl)amino)pyridin-2-yl)-7-methyl-7,8-dihydro-[1,3]dioxolo[4,5-g]isoquinolin-6(5H)-yl-2,2-d2)propan-1-ol], the IC50 with MCF-7 cells worked out at 0.29 nM. Besides, the DC50 on ERα was 0.38 nM. In data set [1] (25° C./60% RH), the “Purity (%) 1 month” value stood at 97.1%, the “Purity (%) 2 months” value turned out to be 96.7%, the “Purity (%) 3 months” value is reported as 96.7% and the “Purity (%) 7 days” value came out at 97.1%. Besides, in data set [1] (25° C./60% RH), the “Purity (%) 14 days” value amounted to 97.0%, the “Purity (%) Initial” value worked out at 97.1% and the Crystal form entry was “Unchanged”. Also, in data set [1] (40° C./75% RH), the “Purity (%) 1 month” value is recorded as 96.5%, the “Purity (%) 2 months” value is 95.5%, the “Purity (%) 3 months” value turned out to be 94.9% and the “Purity (%) 7 days” value came out at 96.8%. In data set [1] (40° C./75% RH), the “Purity (%) 14 days” value was found to be 96.6%, the “Purity (%) Initial” value is given as 97.1% and the Crystal form entry is “Unchanged”. Further, the Hygroscopicity grade entry in data set [2] (0% RH-80.0% RH) is “hygroscopic”. Further, the “Crystal form after DVS” value in data set [2] was “Did not change”. Besides, in data set [2] (DVS), the “Hygroscopicity 0% RH-80.0% RH” value was 4.6% and the “Hygroscopicity 0.0% RH-95.0% RH” value is listed as 6.7%.

Values taken from patent US20240374581A1, “SALT TYPES OF TRICYCLIC TETRAHYDRO ISOQUINOLINE DERIVATIVE” (JIANGSU HENGRUI PHARMACEUTICALS CO., LTD., priority 2021, published 2024).
